≈ marks a conversion by molar mass, not a printed value.
Tests used:
B. subtilis A9506-A = experiment: Antibacterial activity (MIC), serial two-fold agar dilution; type: cell-based; conditions: Bacillus subtilis, A9506A
Procedure: (§1) Antimicrobial activity of BMY-41339 was determined for a variety of bacteria by the serial two-fold agar dilution method.

E. coli A20697 = experiment: as above; type: cell-based; conditions: Escherichia coli
Procedure: as §1

E. coli A9751 = experiment: as above; type: cell-based; conditions: Escherichia coli
Procedure: as §1

E. faecalis A25708 = experiment: as above; type: cell-based; conditions: Enterococcus faecalis
Procedure: as §1

K. pneumoniae A9664 = experiment: as above; type: cell-based; conditions: Klebsiella pneumoniae
Procedure: as §1

P. aeruginosa A20235 = experiment: as above; type: cell-based; conditions: Pseudomonas aeruginosa
Procedure: as §1

P. aeruginosa A21508 = experiment: as above; type: cell-based; conditions: Pseudomonas aeruginosa
Procedure: as §1

P. aeruginosa A9843 = experiment: as above; type: cell-based; conditions: Pseudomonas aeruginosa
Procedure: as §1

P388 leukemia = experiment: In vivo antitumor activity, P388 leukemia implanted ip, drug ip; parameters: species or system mouse
Procedure: The in vivo antitumor activity of BMY-41339 was determined in the standard P388 mouse leukemia model. A summary of the experiments performed using BMY-41339 is provided below.
DBA/2 and (Balb/c × DBA/2)F1 (CDF1) hybrid mice were purchased from Charles River Breeding Co. (Wilmington, MA). They were provided food and water ad libitum.
The P388 murine ascites leukemia was maintained by weekly in vivo passage in DBA/2 mice.
Esperamicin A1 and BMY-41339 were dissolved in ethanol. Further dilutions were made with 0.9% NaCl (saline) until the ethanol concentration (v/v) was 10%. All administrations were made, therefore, in a 10% ethanol in saline vehicle. For ip injections, the concentration of compound was adjusted according to the average initial body weight of each group of mice to be injected such that the desired dose would be contained in a 0.5 ml injection volume. The same procedure was used for iv compound administration except the injection volume was 0.2 ml.
Antitumor experiments were initiated by implanting […] P388 leukemia cells either ip or iv into CDF1 mice. BMY-41339 and esperamicin A1 (included as a positive reference compound), were injected either ip in mice implanted ip with P388, or iv in mice implanted iv with P388 on Day 2 post-implant only Eight different dose levels of BMY-41339, at two-fold increments, were evaluated in each of the two experiments performed.
A % T/C value of ≥ 125 was considered indicative of activity in these models.

[1] = Exp. 8102, ip, 0.025 mg/kg/dose
[2] = Exp. 8109, ip, 0.025 mg/kg/dose

SMILES: C=C(OC)C(=O)Nc1cc(OC)c(OC)cc1C(=O)OC1CC(OC2C(=O)C(NC(=O)OC)=C3C(=CCSSSSC)C2(O)C#CC=CC#CC3OC2OC(C)C(NOC3CC(O)C(SC)C(C)O3)C(O)C2OC2CC(OC)C(NC(C)C)CO2)OC(C)C1O (centres unmarked) [BMY-41339]
- MIC (B. subtilis A9506-A): 0.001 µg/mL (≈ 0.000737 µM)
- MIC (E. coli A20697): 0.25 µg/mL (≈ 0.184 µM)
- MIC (E. coli A9751): 0.016 µg/mL (≈ 0.0118 µM)
- MIC (E. faecalis A25708): 0.002 µg/mL (≈ 0.00147 µM)
- MIC (K. pneumoniae A9664): 1 µg/mL (≈ 0.737 µM)
- MIC (P. aeruginosa A20235): 0.13 µg/mL (≈ 0.0958 µM)
- MIC (P. aeruginosa A21508): 0.25 µg/mL (≈ 0.184 µM)
- MIC (P. aeruginosa A9843): 0.25 µg/mL (≈ 0.184 µM)
- T/C (P388 leukemia; Exp. 8102, ip, 1.6 μg/kg): 145%
- T/C (P388 leukemia; Exp. 8102, ip, 3.2 μg/kg (highest dose tested)): 140%
- % T/C (P388 leukemia; [1]): 110%
- Avg. wt. change on day 6 (P388 leukemia; [1]): 0.8 grams
- Survivors on Day 5 (P388 leukemia; [1]): 6/6
- % T/C (P388 leukemia; Exp. 8102, ip, 0.05 mg/kg/dose): 110%
- Avg. wt. change on day 6 (P388 leukemia; Exp. 8102, ip, 0.05 mg/kg/dose): 1.3 grams
- Survivors on Day 5 (P388 leukemia; Exp. 8102, ip, 0.05 mg/kg/dose): 6/6
- % T/C (P388 leukemia; Exp. 8102, ip, 0.1 mg/kg/dose): 120%
- Avg. wt. change on day 6 (P388 leukemia; Exp. 8102, ip, 0.1 mg/kg/dose): 0.7 grams
- Survivors on Day 5 (P388 leukemia; Exp. 8102, ip, 0.1 mg/kg/dose): 6/6
- % T/C (P388 leukemia; Exp. 8102, ip, 0.2 mg/kg/dose): 140%
- Avg. wt. change on day 6 (P388 leukemia; Exp. 8102, ip, 0.2 mg/kg/dose): 0.6 grams
- Survivors on Day 5 (P388 leukemia; Exp. 8102, ip, 0.2 mg/kg/dose): 6/6
- % T/C (P388 leukemia; Exp. 8102, ip, 0.4 mg/kg/dose): 135%
- Avg. wt. change on day 6 (P388 leukemia; Exp. 8102, ip, 0.4 mg/kg/dose): 0.6 grams
- Survivors on Day 5 (P388 leukemia; Exp. 8102, ip, 0.4 mg/kg/dose): 6/6
- % T/C (P388 leukemia; Exp. 8102, ip, 0.8 mg/kg/dose): 140%
- Avg. wt. change on day 6 (P388 leukemia; Exp. 8102, ip, 0.8 mg/kg/dose): 0.4 grams
- Survivors on Day 5 (P388 leukemia; Exp. 8102, ip, 0.8 mg/kg/dose): 6/6
- % T/C (P388 leukemia; Exp. 8102, ip, 1.6 mg/kg/dose): 145%
- Avg. wt. change on day 6 (P388 leukemia; Exp. 8102, ip, 1.6 mg/kg/dose): -0.1 grams
- Survivors on Day 5 (P388 leukemia; Exp. 8102, ip, 1.6 mg/kg/dose): 6/6
- % T/C (P388 leukemia; Exp. 8102, ip, 3.2 mg/kg/dose): 140%
- Avg. wt. change on day 6 (P388 leukemia; Exp. 8102, ip, 3.2 mg/kg/dose): 0.7 grams
- Survivors on Day 5 (P388 leukemia; Exp. 8102, ip, 3.2 mg/kg/dose): 6/6
- % T/C (P388 leukemia; Exp. 8102, ip, single injections above 0.1 μg/kg, Day 2 only): ≥ 135%
- overt drug-associated toxicity (e.g. excessive body weight loss, early deaths) (P388 leukemia; Exp. 8102, ip, up to 3.2 μg/kg): no obvious sign of overt drug-associated toxicity
- % T/C (P388 leukemia; [2]): 110%
- Avg. wt. change on day 6 (P388 leukemia; [2]): 0.8 grams
- Survivors on Day 5 (P388 leukemia; [2]): 6/6
- T/C (P388 leukemia; Exp. 8109, ip, 32 μg/kg (highest dose tested)): 171%
- % T/C (P388 leukemia; Exp. 8109, ip, 0.05 mg/kg/dose): 110%
- Avg. wt. change on day 6 (P388 leukemia; Exp. 8109, ip, 0.05 mg/kg/dose): 1.3 grams
- Survivors on Day 5 (P388 leukemia; Exp. 8109, ip, 0.05 mg/kg/dose): 6/6
- % T/C (P388 leukemia; Exp. 8109, ip, 0.1 mg/kg/dose): 120%
- Avg. wt. change on day 6 (P388 leukemia; Exp. 8109, ip, 0.1 mg/kg/dose): 0.7 grams
- Survivors on Day 5 (P388 leukemia; Exp. 8109, ip, 0.1 mg/kg/dose): 6/6
- % T/C (P388 leukemia; Exp. 8109, ip, 0.2 mg/kg/dose): 140%
- Avg. wt. change on day 6 (P388 leukemia; Exp. 8109, ip, 0.2 mg/kg/dose): 0.6 grams
- Survivors on Day 5 (P388 leukemia; Exp. 8109, ip, 0.2 mg/kg/dose): 6/6
- % T/C (P388 leukemia; Exp. 8109, ip, 0.4 mg/kg/dose): 135%
- Avg. wt. change on day 6 (P388 leukemia; Exp. 8109, ip, 0.4 mg/kg/dose): 0.6 grams
- Survivors on Day 5 (P388 leukemia; Exp. 8109, ip, 0.4 mg/kg/dose): 6/6
- % T/C (P388 leukemia; Exp. 8109, ip, 0.8 mg/kg/dose): 140%
- Avg. wt. change on day 6 (P388 leukemia; Exp. 8109, ip, 0.8 mg/kg/dose): 0.4 grams
- Survivors on Day 5 (P388 leukemia; Exp. 8109, ip, 0.8 mg/kg/dose): 6/6
- % T/C (P388 leukemia; Exp. 8109, ip, 1.6 mg/kg/dose): 145%
- Avg. wt. change on day 6 (P388 leukemia; Exp. 8109, ip, 1.6 mg/kg/dose): -0.1 grams
- Survivors on Day 5 (P388 leukemia; Exp. 8109, ip, 1.6 mg/kg/dose): 6/6
- % T/C (P388 leukemia; Exp. 8109, ip, 3.2 mg/kg/dose): 140%
